Data as given in PMC5218480 (PLoS ONE, 2017).

System: MV-4-11 cells
Experiment: Gene expression microarray analysis (Affymetrix PrimeView) and GSEA
Type: cell-based, human
Set-up: RFU PODN (11730768_x_at) / Fold change /veh PODN (11730768_x_at) / RFU LINC00158 (11744669_a_at) / Fold change /veh LINC00158 (11744669_a_at) / RFU DUSP10 (11751237_a_at) / Fold change /veh DUSP10 (11751237_a_at) / RFU ID3 (11757404_x_at) / Fold change /veh ID3 (11757404_x_at) / RFU PLEKHG5 (11737974_s_at) / Fold change /veh PLEKHG5 (11737974_s_at) / RFU LRRC4B (11730491_at) / Fold change /veh LRRC4B (11730491_at) / RFU GIMAP4 (11747438_a_at) / Fold change /veh GIMAP4 (11747438_a_at) / RFU KRT8 (11758183_x_at) / Fold change /veh KRT8 (11758183_x_at) / RFU CNN1 (11734310_a_at) / Fold change /veh CNN1 (11734310_a_at) / RFU VPS37D (11726825_at) / Fold change /veh VPS37D (11726825_at) / RFU C10orf10 (11716522_x_at) / Fold change /veh C10orf10 (11716522_x_at) / RFU KIR2DL2 /// KIR2DL4 /// KIR2DL5A /// KIR2DL5B /// KIR2DS1 /// KIR2DS2 /// KIR2DS3 /// KIR2DS4 /// KIR3DL3 /// KIR3DL3 /// KIR3DS1 (11738374_at) / Fold change /veh KIR2DL2 /// KIR2DL4 /// KIR2DL5A /// KIR2DL5B /// KIR2DS1 /// KIR2DS2 /// KIR2DS3 /// KIR2DS4 /// KIR3DL3 /// KIR3DL3 /// KIR3DS1 (11738374_at) / RFU C1QL1 (11718748_at) / Fold change /veh C1QL1 (11718748_at) / RFU TMPRSS4 (11747572_a_at) / Fold change /veh TMPRSS4 (11747572_a_at) / RFU HAMP (11756126_x_at) / Fold change /veh HAMP (11756126_x_at) / RFU RNFT2 (11725882_a_at) / Fold change /veh RNFT2 (11725882_a_at) / RFU NR4A2 (11747474_a_at) / Fold change /veh NR4A2 (11747474_a_at) / RFU ABCC12 (11746883_a_at) / Fold change /veh ABCC12 (11746883_a_at) / RFU TMEM136 (11760407_x_at) / Fold change /veh TMEM136 (11760407_x_at) / RFU CLDN22 /// WWC2 (11732394_at) / Fold change /veh CLDN22 /// WWC2 (11732394_at) / RFU HLA-DPB1 (11760878_x_at) / Fold change /veh HLA-DPB1 (11760878_x_at) / RFU SPINT1 (11716480_a_at) / Fold change /veh SPINT1 (11716480_a_at) / RFU GAP43 (11754022_s_at) / Fold change /veh GAP43 (11754022_s_at) / RFU A4GNT (11735810_at) / Fold change /veh A4GNT (11735810_at) / RFU PRB3 (11715151_x_at) / Fold change /veh PRB3 (11715151_x_at) / RFU TUBB4B (11761932_at) / Fold change /veh TUBB4B (11761932_at) / RFU CAPN14 (11732068_a_at) / Fold change /veh CAPN14 (11732068_a_at) / RFU TMCC2 (11721928_a_at) / Fold change /veh TMCC2 (11721928_a_at) / RFU IRGQ (11745062_a_at) / Fold change /veh IRGQ (11745062_a_at) / RFU FAM174B (11720279_a_at) / Fold change /veh FAM174B (11720279_a_at) / RFU TMPRSS4 (11748680_a_at) / Fold change /veh TMPRSS4 (11748680_a_at) / RFU FAM212B (11763350_a_at) / Fold change /veh FAM212B (11763350_a_at) / RFU PLEKHG5 (11743358_a_at) / Fold change /veh PLEKHG5 (11743358_a_at) / RFU ZSCAN30 (11745921_a_at) / Fold change /veh ZSCAN30 (11745921_a_at) / RFU CMKLR1 (11741424_a_at) / Fold change /veh CMKLR1 (11741424_a_at) / RFU LOC101060620 /// MAPK8IP1 (11723275_at) / Fold change /veh LOC101060620 /// MAPK8IP1 (11723275_at) / RFU SPTSSB (11747773_x_at) / Fold change /veh SPTSSB (11747773_x_at) / RFU PRSS12 (11739890_at) / Fold change /veh PRSS12 (11739890_at) / RFU BIN1 (11741810_x_at) / Fold change /veh BIN1 (11741810_x_at) / RFU WNT11 (11732464_a_at) / Fold change /veh WNT11 (11732464_a_at) / RFU C10orf10 (11716521_a_at) / Fold change /veh C10orf10 (11716521_a_at) / RFU C5orf56 (11738089_at) / Fold change /veh C5orf56 (11738089_at) / RFU CYB561 (11721691_x_at) / Fold change /veh CYB561 (11721691_x_at) / RFU ANKRD19P (11752326_a_at) / Fold change /veh ANKRD19P (11752326_a_at) / RFU OR2T12 /// OR2T33 /// OR2T8 (11738714_s_at) / Fold change /veh OR2T12 /// OR2T33 /// OR2T8 (11738714_s_at) / RFU VCAN (11748164_a_at) / Fold change /veh VCAN (11748164_a_at) / RFU JSRP1 (11732532_at) / Fold change /veh JSRP1 (11732532_at) / RFU KRTAP10-11 (11738290_x_at) / Fold change /veh KRTAP10-11 (11738290_x_at) / RFU MYO3A (11730013_a_at) / Fold change /veh MYO3A (11730013_a_at) / RFU EBF3 (11725865_a_at) / Fold change /veh EBF3 (11725865_a_at) / RFU CAMK2N1 (11719241_x_at) / Fold change /veh CAMK2N1 (11719241_x_at) / RFU C5orf56 (11738088_a_at) / Fold change /veh C5orf56 (11738088_a_at) / RFU OLFML3 (11715873_a_at) / Fold change /veh OLFML3 (11715873_a_at) / RFU LOC100653217 /// NTM (11731650_a_at) / Fold change /veh LOC100653217 /// NTM (11731650_a_at) / RFU MAPK11 (11762145_a_at) / Fold change /veh MAPK11 (11762145_a_at) / RFU FIZ1 (11724087_x_at) / Fold change /veh FIZ1 (11724087_x_at) / RFU OASL (11726364_x_at) / Fold change /veh OASL (11726364_x_at) / RFU SOX15 (11748057_x_at) / Fold change /veh SOX15 (11748057_x_at) / RFU CD79A (11719716_a_at) / Fold change /veh CD79A (11719716_a_at) / RFU HIST1H1D (11736915_at) / Fold change /veh HIST1H1D (11736915_at) / RFU CASKIN2 (11723855_a_at) / Fold change /veh CASKIN2 (11723855_a_at) / RFU LOC730098 (11760151_x_at) / Fold change /veh LOC730098 (11760151_x_at) / RFU OR4N2 (11742367_at) / Fold change /veh OR4N2 (11742367_at) / RFU PRRT2 (11749266_a_at) / Fold change /veh PRRT2 (11749266_a_at) / RFU SNX32 (11753110_a_at) / Fold change /veh SNX32 (11753110_a_at) / RFU CDHR5 (11726645_a_at) / Fold change /veh CDHR5 (11726645_a_at) / RFU RCAN1 (11760418_a_at) / Fold change /veh RCAN1 (11760418_a_at) / RFU FAM167A (11723789_a_at) / Fold change /veh FAM167A (11723789_a_at) / RFU FAM26E (11764081_at) / Fold change /veh FAM26E (11764081_at) / RFU ISYNA1 (11749810_s_at) / Fold change /veh ISYNA1 (11749810_s_at) / RFU ACY1 (11761880_at) / Fold change /veh ACY1 (11761880_at) / RFU 11764098_at / Fold change /veh 11764098_at / RFU SAMD14 (11745864_x_at) / Fold change /veh SAMD14 (11745864_x_at) / RFU NPB (11741838_a_at) / Fold change /veh NPB (11741838_a_at) / RFU TMPRSS6 (11731388_a_at) / Fold change /veh TMPRSS6 (11731388_a_at) / RFU KRTAP10-2 (11738614_at) / Fold change /veh KRTAP10-2 (11738614_at) / RFU ARHGAP8 /// PRR5-ARHGAP8 (11727945_x_at) / Fold change /veh ARHGAP8 /// PRR5-ARHGAP8 (11727945_x_at) / RFU KRTAP5-7 /// NADSYN1 (11734609_at) / Fold change /veh KRTAP5-7 /// NADSYN1 (11734609_at) / RFU RASL12 (11751679_a_at) / Fold change /veh RASL12 (11751679_a_at) / RFU CDKN2B (11736163_a_at) / Fold change /veh CDKN2B (11736163_a_at) / RFU PRF1 (11729649_at) / Fold change /veh PRF1 (11729649_at) / RFU, ZNF638 /// ZNF638-IT1 / Fold change vs veh, ZNF638 /// ZNF638-IT1 / RFU, PANK3 / Fold change vs veh, PANK3 / RFU, SH3YL1 / Fold change vs veh, SH3YL1 / RFU, ZEB2 / Fold change vs veh, ZEB2 / RFU, NRIP1 / Fold change vs veh, NRIP1 / RFU, PTTG1IP / Fold change vs veh, PTTG1IP / RFU, CAPN2 / Fold change vs veh, CAPN2 / RFU, MED14 / Fold change vs veh, MED14 / RFU, SNORA58 / Fold change vs veh, SNORA58 / RFU, C1orf63 / Fold change vs veh, C1orf63 / RFU, LRRFIP1 / Fold change vs veh, LRRFIP1 / RFU, NDUFAF7 / Fold change vs veh, NDUFAF7 / RFU, SLC12A2 / Fold change vs veh, SLC12A2 / RFU, IBTK / Fold change vs veh, IBTK / RFU, ESF1 / Fold change vs veh, ESF1 / Fold change vs veh, TMEM50B / RFU, TAOK1 / Fold change vs veh, TAOK1 / RFU, ACBD3 / Fold change vs veh, ACBD3 / RFU, TMA16 / Fold change vs veh, TMA16 / RFU, RWDD3 / Fold change vs veh, RWDD3 / RFU, BCAT1 / Fold change vs veh, BCAT1 / RFU, EDEM3 / Fold change vs veh, EDEM3 / RFU, TMEM33 / Fold change vs veh, TMEM33 / RFU, WDR75 / Fold change vs veh, WDR75 / RFU, AHCTF1 / Fold change vs veh, AHCTF1 / RFU, TFRC / Fold change vs veh, TFRC / RFU, ZDHHC17 / Fold change vs veh, ZDHHC17 / RFU, NOM1 / Fold change vs veh, NOM1 / RFU, ARL8B / Fold change vs veh, ARL8B / RFU, ZBTB11 / Fold change vs veh, ZBTB11 / RFU, TAMM41 / Fold change vs veh, TAMM41 / RFU, KIAA1704 /// LOC100996395 / Fold change vs veh, KIAA1704 /// LOC100996395 / RFU, ING1 / Fold change vs veh, ING1 / RFU, TRMT61B / Fold change vs veh, TRMT61B / RFU, FUBP3 / Fold change vs veh, FUBP3 / RFU, TP53 / Fold change vs veh, TP53 / RFU, TNKS2 / Fold change vs veh, TNKS2 / RFU, ZFP14 / Fold change vs veh, ZFP14 / RFU, ACTR2 / Fold change vs veh, ACTR2 / RFU, PPP3R1 / Fold change vs veh, PPP3R1 / RFU, PIK3R1 / Fold change vs veh, PIK3R1 / RFU, HNRNPA1 / Fold change vs veh, HNRNPA1 / RFU, RNF170 / Fold change vs veh, RNF170 / RFU, ZNF28 / Fold change vs veh, ZNF28 / RFU, RNGTT / Fold change vs veh, RNGTT / RFU, OGT / Fold change vs veh, OGT / RFU, BRD1 / Fold change vs veh, BRD1 / RFU, MARS / Fold change vs veh, MARS / RFU, ZNF655 / Fold change vs veh, ZNF655 / RFU, FAHD1 / Fold change vs veh, FAHD1 / RFU, BDP1 / Fold change vs veh, BDP1 / RFU, LRRCC1 / Fold change vs veh, LRRCC1 / RFU, ARID1A / Fold change vs veh, ARID1A / RFU, ZNF146 / Fold change vs veh, ZNF146 / RFU, ZNF330 / Fold change vs veh, ZNF330 / RFU, GPN3 / Fold change vs veh, GPN3 / RFU, C9orf123 / Fold change vs veh, C9orf123 / RFU, N4BP2L2 / Fold change vs veh, N4BP2L2 / RFU, ARFIP1 / Fold change vs veh, ARFIP1 / RFU, FAM179B / Fold change vs veh, FAM179B / RFU, BCL10 / Fold change vs veh, BCL10 / RFU, UHRF1BP1L / Fold change vs veh, UHRF1BP1L / RFU, BET1 / Fold change vs veh, BET1 / RFU, CNOT2 / Fold change vs veh, CNOT2 / RFU, ZNF268 / Fold change vs veh, ZNF268 / Fold change vs veh, ZNF507 / RFU, DGCR2 / Fold change vs veh, DGCR2 / RFU, WDSUB1 / Fold change vs veh, WDSUB1 / Fold change vs veh, HSP90B1 /// MIR3652 / RFU, ADSS / Fold change vs veh, ADSS / RFU, GK / Fold change vs veh, GK / RFU, ZNF148 / Fold change vs veh, ZNF148 / RFU, TAF9 / Fold change vs veh, TAF9 / RFU, SLC1A5 / Fold change vs veh, SLC1A5 / RFU, SLMO2 / Fold change vs veh, SLMO2 / RFU, ABCC4 / Fold change vs veh, ABCC4 / RFU, LOC101060439 /// RAP1B / Fold change vs veh, LOC101060439 /// RAP1B / RFU, RFX7 / Fold change vs veh, RFX7 / RFU, GTPBP10 / Fold change vs veh, GTPBP10 / RFU, CNEP1R1 / Fold change vs veh, CNEP1R1 / RFU, BIVM-ERCC5 /// ERCC5 / Fold change vs veh, BIVM-ERCC5 /// ERCC5 / RFU, ILF3 / Fold change vs veh, ILF3 / RFU 11762660_at / Fold change /veh 11762660_at / RFU VCAN (11757783_s_at) / Fold change /veh VCAN (11757783_s_at) / RFU DDX43 (11728927_at) / Fold change /veh DDX43 (11728927_at) / RFU KRT8 (11758188_x_at) / Fold change /veh KRT8 (11758188_x_at) / RFU NKD1 (11759106_at) / Fold change /veh NKD1 (11759106_at) / RFU SRD5A1 (11742802_a_at) / Fold change /veh SRD5A1 (11742802_a_at) / RFU TPSAB1 /// TPSB2 (11721975_s_at) / Fold change /veh TPSAB1 /// TPSB2 (11721975_s_at) / RFU GSTM3 (11746129_a_at) / Fold change /veh GSTM3 (11746129_a_at) / RFU IL23R (11737362_x_at) / Fold change /veh IL23R (11737362_x_at) / RFU TMEM51 (11727254_a_at) / Fold change /veh TMEM51 (11727254_a_at) / RFU PIWIL2 (11732686_x_at) / Fold change /veh PIWIL2 (11732686_x_at) / RFU ORM1 (11744905_x_at) / Fold change /veh ORM1 (11744905_x_at) / RFU CCDC152 (11743942_at) / Fold change /veh CCDC152 (11743942_at) / RFU ECM1 (11717891_a_at) / Fold change /veh ECM1 (11717891_a_at) / RFU IL23R (11748794_a_at) / Fold change /veh IL23R (11748794_a_at) / RFU TNFAIP8L3 (11732012_x_at) / Fold change /veh TNFAIP8L3 (11732012_x_at) / RFU MBOAT4 (11741988_at) / Fold change /veh MBOAT4 (11741988_at) / RFU 11764193_at / Fold change /veh 11764193_at / RFU TMEM53 (11763286_at) / Fold change /veh TMEM53 (11763286_at) / RFU MAGEB2 (11727129_at) / Fold change /veh MAGEB2 (11727129_at) / RFU TMEM200A (11744735_a_at) / Fold change /veh TMEM200A (11744735_a_at) / RFU CCDC152 (11751479_a_at) / Fold change /veh CCDC152 (11751479_a_at) / RFU FAM211A (11726209_a_at) / Fold change /veh FAM211A (11726209_a_at) / RFU RGS16 (11746705_a_at) / Fold change /veh RGS16 (11746705_a_at) / RFU VCAN (11755009_s_at) / Fold change /veh VCAN (11755009_s_at) / RFU RHOB (11743442_s_at) / Fold change /veh RHOB (11743442_s_at) / RFU RGS16 (11720943_a_at) / Fold change /veh RGS16 (11720943_a_at) / RFU RGS16 (11720944_at) / Fold change /veh RGS16 (11720944_at) / RFU, VPS4B / Fold change vs veh, VPS4B / RFU, CREB1 / Fold change vs veh, CREB1 / RFU, DNAJC13 / Fold change vs veh, DNAJC13 / RFU, GNAQ / Fold change vs veh, GNAQ / RFU, CDK5R1 / Fold change vs veh, CDK5R1 / RFU, ZRANB3 / Fold change vs veh, ZRANB3 / RFU, CUL4A / Fold change vs veh, CUL4A / RFU, CCNY / Fold change vs veh, CCNY / RFU, UFL1 / Fold change vs veh, UFL1 / RFU, COG3 / Fold change vs veh, COG3 / RFU, DIAPH2 / Fold change vs veh, DIAPH2 / RFU, SKA2 / Fold change vs veh, SKA2 / RFU, AFF3 / Fold change vs veh, AFF3 / RFU, LMF1 / Fold change vs veh, LMF1 / RFU, IPO11 / Fold change vs veh, IPO11 / RFU, DFFB / Fold change vs veh, DFFB / RFU, FOXP1 / Fold change vs veh, FOXP1 / RFU, CARD8 / Fold change vs veh, CARD8 / RFU, STRN3 / Fold change vs veh, STRN3 / RFU, ADK / Fold change vs veh, ADK / RFU, RASSF2 / Fold change vs veh, RASSF2 / RFU, WIPF1 / Fold change vs veh, WIPF1 / RFU, LARP1B / Fold change vs veh, LARP1B / RFU, RASA1 / Fold change vs veh, RASA1 / RFU, RB1 / Fold change vs veh, RB1 / RFU, PPFIA1 / Fold change vs veh, PPFIA1 / RFU, MAT2A / Fold change vs veh, MAT2A / RFU, CCT5 / Fold change vs veh, CCT5 / RFU, WDR92 / Fold change vs veh, WDR92 / RFU, CUX1 / Fold change vs veh, CUX1 / RFU, TTC7A / Fold change vs veh, TTC7A / RFU, TMEM135 / Fold change vs veh, TMEM135 / RFU, DEPTOR / Fold change vs veh, DEPTOR / RFU, CPM / Fold change vs veh, CPM / RFU, DNAJB6 / Fold change vs veh, DNAJB6 / RFU, CACNA2D3 / Fold change vs veh, CACNA2D3 / RFU, DTX4 / Fold change vs veh, DTX4 / RFU, TFCP2 / Fold change vs veh, TFCP2 / RFU, GMCL1 /// GMCL1P1 / Fold change vs veh, GMCL1 /// GMCL1P1 / RFU, AEBP2 / Fold change vs veh, AEBP2 / RFU, SNHG1 /// SNORD22 /// SNORD25 /// SNORD26 /// SNORD27 /// SNORD28 /// SNORD29 /// SNORD31 / Fold change vs veh, SNHG1 /// SNORD22 /// SNORD25 /// SNORD26 /// SNORD27 /// SNORD28 /// SNORD29 /// SNORD31 / Fold change (Aza/veh), C12orf56 (ProbeSet 11735607_a_at) / Fold change (ACY-1035/veh), C12orf56 (ProbeSet 11735607_a_at) / Fold change (Aza/veh), FGFR1OP (ProbeSet 11751329_s_at) / Fold change (ACY-1035/veh), FGFR1OP (ProbeSet 11751329_s_at) / Fold change (Aza/veh), VPS36 (ProbeSet 11739960_a_at) / Fold change (ACY-1035/veh), VPS36 (ProbeSet 11739960_a_at) / RFU SYPL1 (11715823_x_at) / Fold change /veh SYPL1 (11715823_x_at) / RFU IGFBP7 (11715501_s_at) / Fold change /veh IGFBP7 (11715501_s_at) / RFU REEP3 (11722064_at) / Fold change /veh REEP3 (11722064_at) / RFU IGLL1 (11728026_x_at) / Fold change /veh IGLL1 (11728026_x_at): dose or concentration left out as unconfirmed
Conditions: MV-4-11 cells, 48 hours

Nc1ccc(-c2cccs2)cc1NC(=O)c1ccc2c(c1)cc(C1CC1)n2CCN1CCOCC1 [ACY-1035]
RFU IGLL1 (11728026_x_at): 5.54 RFU
